Data taken from ChEMBL document CHEMBL1201862, “PubChem BioAssay data set” (2004).
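Growth conditions: 96-well plates. Treatment: test compound, 48 hours, 5 concentrations. Analysis: linear interpolation between bracketing concentrations; unreached endpoints set to highest concentration. Abbreviation: GI50, concentration required for 50% inhibition of growth.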 Active and inactive are the calls of the source. Rule as the data show it: active = GI50 up to about 1.1 µM and inactive = higher.

Tests used:
Assay in all cases: NCI-60 cell line screen, 48 h
[1] = tested on: DLD-1
[2] = tested on: DMS-273
[3] = tested on: TK-10
[4] = tested on: HL-60
[5] = tested on: SK-MEL-2
[6] = tested on: UACC-62
[7] = tested on: SNB-78
[8] = tested on: HCT-116
[9] = tested on: A498
[10] = tested on: RXF 393
[11] = tested on: HOP-92
[12] = tested on: NCI-H23
[13] = tested on: MOLT-4
[14] = tested on: HT-29
[15] = tested on: KM-20L2
[16] = tested on: SNB-75
[17] = tested on: SN12C
[18] = tested on: HCC 2998
[19] = tested on: U-251
[20] = tested on: UACC-257
[21] = tested on: COLO 205
[22] = tested on: ACHN
[23] = tested on: CCRF-CEM
[24] = tested on: XF498
[25] = tested on: RPMI-8226
[26] = tested on: Malme-3M
[27] = tested on: 786-0
[28] = tested on: LOX IMVI
[29] = tested on: SF-539
[30] = tested on: LXFL 529
[31] = tested on: A549
[32] = tested on: SNB-19
[33] = tested on: SK-MEL-28
[34] = tested on: SF-268
[35] = tested on: SW-620
[36] = tested on: HCT-15
[37] = tested on: M19-MEL
[38] = tested on: SF-295
[39] = tested on: K562
[40] = tested on: DMS-114
[41] = tested on: NCI-H226
[42] = tested on: NCI-H522
[43] = tested on: EKVX
[44] = tested on: UO-31
[45] = tested on: OVCAR-4
[46] = tested on: M14
[47] = tested on: IGROV-1
[48] = tested on: HOP-62
[49] = tested on: OVCAR-8
[50] = tested on: SK-OV-3
[51] = tested on: NCI-H460
[52] = tested on: KM12
[53] = tested on: SR
[54] = tested on: HOP-18
[55] = tested on: OVCAR-3

C[N+]1(C)C[C@@H](O)C[C@@H]1C(=O)[O-] [BETONICINE]
GI50 [1]: > 100 µM (inactive) | GI50 [2]: > 100 µM (inactive) | GI50 [3]: > 100 µM (inactive) | GI50 [4]: > 100 µM (inactive) | GI50 [5]: > 100 µM (inactive) | GI50 [6]: > 100 µM (inactive) | GI50 [7]: > 100 µM (inactive) | GI50 [8]: > 100 µM (inactive) | GI50 [9]: > 100 µM (inactive) | GI50 [10]: > 100 µM (inactive) | GI50 [11]: > 100 µM (inactive) | GI50 [12]: > 100 µM (inactive) | GI50 [13]: > 100 µM (inactive) | GI50 [14]: > 100 µM (inactive) | GI50 [15]: > 100 µM (inactive) | GI50 [16]: > 100 µM (inactive) | GI50 [17]: > 100 µM (inactive) | GI50 [18]: > 100 µM (inactive) | GI50 [19]: > 100 µM (inactive) | GI50 [20]: > 100 µM (inactive) | GI50 [21]: > 100 µM (inactive) | GI50 [22]: > 100 µM (inactive) | GI50 [23]: > 100 µM (inactive) | GI50 [24]: > 100 µM (inactive) | GI50 [25]: > 100 µM (inactive) | GI50 [26]: > 100 µM (inactive) | GI50 [27]: > 100 µM (inactive) | GI50 [28]: > 100 µM (inactive) | GI50 [29]: > 100 µM (inactive) | GI50 [30]: > 100 µM (inactive) | GI50 [31]: > 100 µM (inactive) | GI50 [32]: > 100 µM (inactive) | GI50 [33]: > 100 µM (inactive) | GI50 [34]: > 100 µM (inactive) | GI50 [35]: > 100 µM (inactive) | GI50 [36]: > 100 µM | GI50 [37]: > 100 µM (inactive) | GI50 [38]: > 100 µM (inactive) | GI50 [39]: > 100 µM (inactive) | GI50 [40]: > 100 µM (inactive) | GI50 [41]: > 100 µM (inactive) | GI50 [42]: > 100 µM (inactive) | GI50 [43]: > 100 µM (inactive) | GI50 [44]: > 100 µM (inactive) | GI50 [45]: > 100 µM (inactive) | GI50 [46]: > 100 µM (inactive) | GI50 [47]: > 100 µM (inactive) | GI50 [48]: > 100 µM (inactive) | GI50 [49]: > 100 µM (inactive) | GI50 [50]: > 100 µM (inactive) | GI50 [51]: > 100 µM (inactive) | GI50 [52]: > 100 µM (inactive) | GI50 [53]: > 100 µM (inactive) | GI50 [54]: > 100 µM (inactive) | GI50 [55]: > 100 µM (inactive)
